Read-outs that look alike come from different tables or passages of the source.
Assays:
[1] = biological target: C. elegans (N2) complex I (NADH:ubiquinone oxidoreductase) (Caenorhabditis elegans, UniProt P24887+Q93873+Q94360); experiment: biochemical; type: biochemical; conditions: for Log IC50 C. elegans complex I: log10 of IC50 in µM, C. elegans mitochondria
In short: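 Complex I rate: initial linear slope of A600 over 15 min, expressed as percent of solvent control. Triple freeze-thawed mitochondria (0.2 mg/mL) in KPi pH 7.5, BSA 3 mg/mL, NADH 80 μM, decylubiquinone 60 μM, DCIP 160 μM, antimycin A, KCN.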

[2] = biological target: B. taurus (heart) complex I (Bos taurus, UniProt P03887+P17694+P42026); experiment: biochemical; type: biochemical; conditions: for IC50: B. taurus heart mitochondria, estimated from fitted dose-response curves, read-out: B. taurus Complex I IC50; for Log IC50 B. taurus complex I: log10 of IC50 in µM, B. taurus mitochondria
In short: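 Complex I activity followed as DCIP reduction (600 nm, 30 s reads, 15 min) with 80 μM NADH and 60 μM decylubiquinone in 25 mM KPi pH 7.5 containing 2 μM antimycin A and 2 mM KCN. Freeze-thawed mouse or bovine heart mitochondria at 0.2 mg/mL; initial-rate percent of solvent control, single-point 100 μM or dose-response.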

[3] = in vitro complex I dose response on C. elegans mitochondria, average of at least two biological replicates, fit in R (DRC), read-out: IC50 C. elegans complex I
[4] = wild-type C. elegans mitochondria, estimated from fitted dose-response curves, read-out: C. elegans Complex I IC50
[5] = wild-type (N2) mitochondria, read-out: C. elegans Complex I IC50

Chain of B. taurus (heart) complex I (P03887 whole entry): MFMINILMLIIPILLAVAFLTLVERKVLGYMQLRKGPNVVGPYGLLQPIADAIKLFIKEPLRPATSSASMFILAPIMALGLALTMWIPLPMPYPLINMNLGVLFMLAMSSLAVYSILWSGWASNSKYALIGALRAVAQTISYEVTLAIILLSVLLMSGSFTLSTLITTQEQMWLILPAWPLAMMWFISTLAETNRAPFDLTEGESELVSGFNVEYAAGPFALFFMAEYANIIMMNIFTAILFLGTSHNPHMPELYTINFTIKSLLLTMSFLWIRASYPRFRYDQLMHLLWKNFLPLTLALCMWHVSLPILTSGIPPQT
Chain of B. taurus (heart) complex I (P17694 34-463): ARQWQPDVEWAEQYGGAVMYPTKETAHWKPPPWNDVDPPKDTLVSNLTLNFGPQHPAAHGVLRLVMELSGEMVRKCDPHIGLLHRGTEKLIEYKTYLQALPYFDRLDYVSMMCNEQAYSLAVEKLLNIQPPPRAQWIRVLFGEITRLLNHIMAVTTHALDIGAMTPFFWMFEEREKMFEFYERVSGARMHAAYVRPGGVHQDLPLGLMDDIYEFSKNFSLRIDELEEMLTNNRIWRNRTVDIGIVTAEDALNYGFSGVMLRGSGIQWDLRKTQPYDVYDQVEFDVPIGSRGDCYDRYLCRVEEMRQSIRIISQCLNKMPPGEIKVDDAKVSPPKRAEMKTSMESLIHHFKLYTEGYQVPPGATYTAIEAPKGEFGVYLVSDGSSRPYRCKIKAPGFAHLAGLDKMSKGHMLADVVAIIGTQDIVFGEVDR
Chain of B. taurus (heart) complex I (P42026 38-216): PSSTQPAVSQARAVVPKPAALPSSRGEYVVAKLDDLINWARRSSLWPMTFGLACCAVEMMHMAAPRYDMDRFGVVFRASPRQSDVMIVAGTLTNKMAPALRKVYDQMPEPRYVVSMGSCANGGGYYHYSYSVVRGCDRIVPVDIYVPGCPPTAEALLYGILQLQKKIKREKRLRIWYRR
Chain of C. elegans (N2) complex I (NADH:ubiquinone oxidoreductase) (Q94360 17-199): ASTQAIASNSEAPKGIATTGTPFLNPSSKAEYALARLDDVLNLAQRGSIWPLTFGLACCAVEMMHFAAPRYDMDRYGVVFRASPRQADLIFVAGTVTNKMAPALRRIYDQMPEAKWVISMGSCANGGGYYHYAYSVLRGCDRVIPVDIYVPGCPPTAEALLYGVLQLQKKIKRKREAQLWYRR
Chain of C. elegans (N2) complex I (NADH:ubiquinone oxidoreductase) (P24887 whole entry): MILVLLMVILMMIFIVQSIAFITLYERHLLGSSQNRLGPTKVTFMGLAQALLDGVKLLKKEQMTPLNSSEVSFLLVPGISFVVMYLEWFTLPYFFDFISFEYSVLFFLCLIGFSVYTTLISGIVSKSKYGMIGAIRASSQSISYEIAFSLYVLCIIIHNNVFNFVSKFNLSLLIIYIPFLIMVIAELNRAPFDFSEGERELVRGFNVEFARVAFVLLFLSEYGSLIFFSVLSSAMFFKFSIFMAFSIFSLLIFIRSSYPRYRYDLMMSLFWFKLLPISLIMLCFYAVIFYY
Chain of C. elegans (N2) complex I (NADH:ubiquinone oxidoreductase) (Q93873 31-482): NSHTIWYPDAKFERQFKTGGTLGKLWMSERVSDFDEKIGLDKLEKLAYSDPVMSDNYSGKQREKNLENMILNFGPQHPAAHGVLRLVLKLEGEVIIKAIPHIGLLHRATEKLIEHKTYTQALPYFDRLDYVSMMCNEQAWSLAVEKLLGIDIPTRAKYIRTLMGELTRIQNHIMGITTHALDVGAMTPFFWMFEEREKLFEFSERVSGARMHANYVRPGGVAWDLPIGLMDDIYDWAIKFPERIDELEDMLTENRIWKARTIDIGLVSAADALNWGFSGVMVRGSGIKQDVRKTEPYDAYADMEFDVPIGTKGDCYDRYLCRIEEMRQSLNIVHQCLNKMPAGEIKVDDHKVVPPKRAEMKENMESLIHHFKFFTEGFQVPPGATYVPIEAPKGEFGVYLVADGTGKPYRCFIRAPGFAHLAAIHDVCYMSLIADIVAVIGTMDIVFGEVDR

Cc1ccccc1OCCCn1c(C)nc2ccccc21 [Compound 7916923]
activity at 0.0001 µM ([1]; Dose 0.0001 µM, read-out: C. elegans mitochondrial complex I activity): 94.5% | activity at 0.0005 µM ([1]; Dose 0.0005 µM, read-out: C. elegans mitochondrial complex I activity): 93.6% | activity at 0.001 µM ([1]; Dose 0.001 µM, read-out: C. elegans mitochondrial complex I activity): 94.8% | activity at 0.0025 µM ([1]; Dose 0.0025 µM, read-out: C. elegans mitochondrial complex I activity): 99.1% | activity at 0.005 µM ([1]; Dose 0.005 µM, read-out: C. elegans mitochondrial complex I activity): 96.8% | activity at 0.013 µM ([1]; Dose 0.013 µM, read-out: C. elegans mitochondrial complex I activity): 102% | activity at 0.025 µM ([1]; Dose 0.025 µM, read-out: C. elegans mitochondrial complex I activity): 94.3% | activity at 0.063 µM ([1]; Dose 0.063 µM, read-out: C. elegans mitochondrial complex I activity): 89.3% | activity at 0.125 µM ([1]; Dose 0.125 µM, read-out: C. elegans mitochondrial complex I activity): 86.3% | activity at 0.313 µM ([1]; Dose 0.313 µM, read-out: C. elegans mitochondrial complex I activity): 78.5% | activity at 0.625 µM ([1]; Dose 0.625 µM, read-out: C. elegans mitochondrial complex I activity): 65.6% | activity at 1.5 µM ([1]; Dose 1.5 µM, read-out: C. elegans mitochondrial complex I activity): 42.6% | activity at 3 µM ([1]; Dose 3 µM, read-out: C. elegans mitochondrial complex I activity): 27.6% | activity at 15 µM ([1]; Dose 15 µM, read-out: C. elegans mitochondrial complex I activity): 7.28% | activity at 37.5 µM ([1]; Dose 37.5 µM, read-out: C. elegans mitochondrial complex I activity): 4.39% | activity at 75 µM ([1]; Dose 75 µM, read-out: C. elegans mitochondrial complex I activity): 4.47% | IC50 [1, 3]: 1170 nM | Log IC50 C. elegans complex I [1]: 0.07 µM | IC50 [1, 4]: 1170 nM | IC50 [2]: 6670 nM | activity at 0.0001 µM ([2]; Dose 0.0001 µM, read-out: B. taurus mitochondrial complex I activity): 98.7% | activity at 0.0005 µM ([2]; Dose 0.0005 µM, read-out: B. taurus mitochondrial complex I activity): 101% | activity at 0.001 µM ([2]; Dose 0.001 µM, read-out: B. taurus mitochondrial complex I activity): 103% | activity at 0.0025 µM ([2]; Dose 0.0025 µM, read-out: B. taurus mitochondrial complex I activity): 101% | activity at 0.005 µM ([2]; Dose 0.005 µM, read-out: B. taurus mitochondrial complex I activity): 107% | activity at 0.013 µM ([2]; Dose 0.013 µM, read-out: B. taurus mitochondrial complex I activity): 99.6% | activity at 0.025 µM ([2]; Dose 0.025 µM, read-out: B. taurus mitochondrial complex I activity): 102% | activity at 0.063 µM ([2]; Dose 0.063 µM, read-out: B. taurus mitochondrial complex I activity): 104% | activity at 0.125 µM ([2]; Dose 0.125 µM, read-out: B. taurus mitochondrial complex I activity): 90.7% | activity at 0.313 µM ([2]; Dose 0.313 µM, read-out: B. taurus mitochondrial complex I activity): 96.6% | activity at 0.625 µM ([2]; Dose 0.625 µM, read-out: B. taurus mitochondrial complex I activity): 92.7% | activity at 1.5 µM ([2]; Dose 1.5 µM, read-out: B. taurus mitochondrial complex I activity): 79.4% | activity at 3 µM ([2]; Dose 3 µM, read-out: B. taurus mitochondrial complex I activity): 70.6% | activity at 15 µM ([2]; Dose 15 µM, read-out: B. taurus mitochondrial complex I activity): 24.7% | activity at 37.5 µM ([2]; Dose 37.5 µM, read-out: B. taurus mitochondrial complex I activity): 6.64% | activity at 75 µM ([2]; Dose 75 µM, read-out: B. taurus mitochondrial complex I activity): 2.1% | Log IC50 B. taurus complex I [2]: 0.82 µM

Cc1nc2ccccc2n1Cc1ccc(C(C)C)cc1 [Compound 7353551]
IC50 [1, 3]: 430 nM | Log IC50 C. elegans complex I [1]: -0.37 µM | IC50 [1, 5]: 430 nM | IC50 [1, 4]: 430 nM | IC50 [2]: 1570 nM | Log IC50 B. taurus complex I [2]: 0.20 µM

Cc1ccc(Cn2c(C)nc3ccccc32)cc1 [Compound 5651984]
IC50 [1, 3]: 180 nM | Log IC50 C. elegans complex I [1]: -0.74 µM | IC50 [1, 5]: 180 nM | IC50 [1, 4]: 180 nM | IC50 [2]: 990 nM | Log IC50 B. taurus complex I [2]: -0.00436 µM
